Laboratory results reported in ChEMBL document CHEMBL1201862, “PubChem BioAssay data set” (2004).
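Tested at 5 concentrations; 48 h exposure; 96-well plates; endpoints linearly interpolated, else capped at highest concentration. Abbreviation: GI50, concentration required for 50% inhibition of growth.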 Active and inactive are the calls of the source. No stated cut-off is given here; in the data, active = GI50 up to about 1.1 µM and inactive = higher.

How the values were obtained:
Assay in all cases: inhibition of tumour cell growth, NCI panel, 48 h
[1] = test system: LXFL 529
[2] = test system: DLD-1
[3] = test system: M19-MEL
[4] = test system: KM-20L2
[5] = test system: DMS-114
[6] = test system: XF498
[7] = test system: HOP-18
[8] = test system: SNB-78
[9] = test system: RXF 631

With `O=C(CO[N+](=O)[O-])OC/C=C/c1ccccc1` the GI50 [1] was > 100 µM (inactive), the GI50 [2] was > 100 µM (inactive) and the GI50 [3] was > 100 µM (inactive). For the same compound, the GI50 [4] was > 100 µM (inactive) and the GI50 [5] was > 100 µM (inactive).

In the case of `Sc1ncnc2nc[nH]c12` [MERCAPTOPURINE ANHYDROUS], the GI50 [6] is reported as 5.04 µM (inactive), the GI50 [1] is reported as 653 µM (inactive) and the GI50 [2] is reported as 2.08 µM (inactive). For the same compound, the GI50 [3] was 69 µM (inactive), the GI50 [4] was 1.92 µM (inactive) and the GI50 [5] was 1.67 µM (inactive). For the same compound, the GI50 [7] was 192 µM (inactive) and the GI50 [8] was 90.4 µM (inactive).

In the case of `CC1CC[C@@]23CCC4(C)[C@@](C=CC5[C@@]6(C)CCC(=O)C(C)(C)C6CC[C@]54C)(OC2=O)[C@@H]3[C@H]1C` (stereo not given in full), the GI50 [6] is reported as 15.3 µM (inactive), the GI50 [1] is reported as 9.89 µM (inactive) and the GI50 [2] is reported as 19.3 µM (inactive). The GI50 [3] was 17.9 µM (inactive), the GI50 [4] was 15.4 µM (inactive) and the GI50 [5] was 6.46 µM (inactive). For the same compound, the GI50 [9] was 21.1 µM (inactive) and the GI50 [8] was 20 µM (inactive).

With `Cn1c(=O)nc2n(-c3cccc(F)c3)c3ccccc3nc-2c1=O` the GI50 [1] was 37.8 µM (inactive), the GI50 [2] was 25.3 µM (inactive) and the GI50 [3] was 2.11 µM (inactive). The GI50 [4] was 12.3 µM (inactive), the GI50 [7] was 34.1 µM (inactive) and the GI50 [8] was 23.5 µM (inactive).

In the case of `CC1(C)CCOC(Sc2ccccc2)C1` (stereo not given), the GI50 [6] is reported as > 100 µM (inactive), the GI50 [1] is reported as > 100 µM (inactive) and the GI50 [2] is reported as > 100 µM (inactive). For the same compound, the GI50 [3] was 30.3 µM (inactive), the GI50 [4] was 47.4 µM (inactive) and the GI50 [5] was 21.3 µM (inactive). For the same compound, the GI50 [8] was > 100 µM (inactive).

In the case of `CC(=O)NC(C=O)C(O[C@H](C)C(=O)NC(C)C(=O)NC(CCC(N)=O)C(=O)OCc1ccccc1)C(O)C(O)COC(=O)CCNc1c2ccccc2nc2cccc([N+](=O)[O-])c12` (stereo not given in full), the GI50 [6] is reported as 1.83 µM (inactive), the GI50 [1] is reported as 1.79 µM (inactive) and the GI50 [2] is reported as 3.41 µM (inactive). For the same compound, the GI50 [3] was 1.66 µM (inactive), the GI50 [4] was 2 µM (inactive) and the GI50 [5] was 2.81 µM (inactive). The GI50 [7] was 4.3 µM (inactive) and the GI50 [8] was 2.58 µM (inactive).

For `CN1Cc2c(nc(-c3ccc(Br)cc3)c[n+]2[O-])N(C)C1`, the GI50 [6] was > 100 µM (inactive), the GI50 [1] was > 100 µM (inactive) and the GI50 [2] was > 100 µM (inactive). The GI50 [4] was > 100 µM (inactive), the GI50 [5] was > 100 µM (inactive) and the GI50 [7] was > 100 µM (inactive). For the same compound, the GI50 [8] was > 100 µM (inactive).

With `CCOC(=O)c1oc2ccc([N+](=O)[O-])c3c2c1CCC3` the GI50 [6] was 20.7 µM (inactive), the GI50 [1] was > 100 µM (inactive) and the GI50 [2] was > 100 µM (inactive). For the same compound, the GI50 [3] was > 100 µM (inactive), the GI50 [4] was > 100 µM (inactive) and the GI50 [5] was 36.9 µM (inactive). The GI50 [7] was 6.55 µM (inactive), the GI50 [9] was 37.2 µM (inactive) and the GI50 [8] was 34.8 µM (inactive).

For `N#CC(C#N)=c1[nH]c2cccc3c2-c2c(cccc2c3=C(C#N)C#N)[nH]1`, the GI50 [6] was > 100 µM (inactive), the GI50 [1] was > 100 µM (inactive) and the GI50 [2] was > 100 µM (inactive). For the same compound, the GI50 [4] was > 100 µM (inactive), the GI50 [5] was > 100 µM (inactive) and the GI50 [7] was > 100 µM (inactive). For the same compound, the GI50 [8] was 57.4 µM (inactive).

With `COc1ccc(CCC2c3cc(OC)c(OC)cc3CCN2C)cc1OC` (stereo not given) the GI50 [1] was > 100 µM (inactive), the GI50 [2] was > 100 µM (inactive) and the GI50 [3] was > 100 µM (inactive). For the same compound, the GI50 [4] was > 100 µM (inactive), the GI50 [5] was > 100 µM (inactive) and the GI50 [7] was > 100 µM (inactive). The GI50 [8] was > 100 µM (inactive).

With `COC(=O)CC1C[C@H](C#N)N(C(=O)c2ccccc2)C[C@@H]1CC[N+](=O)[O-]` (stereo not given in full) the GI50 [6] was > 100 µM (inactive), the GI50 [1] was > 100 µM (inactive) and the GI50 [2] was > 100 µM (inactive). The GI50 [3] was > 100 µM (inactive), the GI50 [4] was > 100 µM (inactive) and the GI50 [7] was > 100 µM (inactive). The GI50 [8] was > 100 µM (inactive).

For `COc1cccc(/C=C/c2cc(OC)c(OC)c(OC)c2)c1`, the GI50 [6] was 33.7 µM (inactive), the GI50 [1] was 61.7 µM (inactive) and the GI50 [2] was 18.3 µM (inactive). The GI50 [3] was 70.1 µM (inactive), the GI50 [4] was 19.3 µM (inactive) and the GI50 [5] was 24.9 µM (inactive). For the same compound, the GI50 [9] was 23.7 µM (inactive) and the GI50 [8] was 21.8 µM (inactive).

`CN(C)/C=N/c1nc2ncn(CCOC(=O)c3ccccc3)c2c(=O)[nH]1` was tested, and the GI50 [1] was > 100 µM (inactive), the GI50 [2] was > 100 µM (inactive) and the GI50 [3] was > 100 µM (inactive). For the same compound, the GI50 [4] was > 100 µM (inactive), the GI50 [5] was > 100 µM (inactive) and the GI50 [7] was > 100 µM (inactive). For the same compound, the GI50 [9] was > 100 µM (inactive) and the GI50 [8] was > 100 µM (inactive).

In the case of `CCN(CC)C(=S)S` [DITIOCARB SODIUM], the GI50 [6] is reported as 0.221 µM (active), the GI50 [1] is reported as > 100 µM (inactive) and the GI50 [2] is reported as 88.5 µM (inactive). For the same compound, the GI50 [3] was 0.439 µM (active), the GI50 [4] was 69 µM (inactive) and the GI50 [5] was 0.0968 µM (active). The GI50 [7] was > 100 µM (inactive), the GI50 [9] was 3.27 µM (inactive) and the GI50 [8] was > 100 µM (inactive).

`Cc1nnc(N/N=C2/C(=O)Nc3c(Cl)cc(Cl)cc32)n1N` was tested, and the GI50 [1] was > 100 µM (inactive), the GI50 [2] was > 100 µM (inactive) and the GI50 [3] was > 100 µM (inactive). For the same compound, the GI50 [4] was > 100 µM (inactive), the GI50 [7] was 73.1 µM (inactive) and the GI50 [8] was > 100 µM (inactive).

`Cc1ccc(NC(=O)CC2SC(=N)NC2=O)cc1C` (stereo not given) was tested, and the GI50 [6] was > 100 µM (inactive), the GI50 [1] was > 100 µM (inactive) and the GI50 [2] was > 100 µM (inactive). For the same compound, the GI50 [4] was > 100 µM (inactive), the GI50 [9] was > 100 µM (inactive) and the GI50 [8] was > 100 µM (inactive).

`O=C(c1ccc(Cl)cc1Cl)C1[C@H]2C(=O)N(c3ccc(Cc4ccc(N5C(=O)[C@@H]6ON(c7ccccc7)C(C(=O)c7ccc(Cl)cc7Cl)[C@@H]6C5=O)cc4)cc3)C(=O)[C@H]2ON1c1ccccc1` (stereo not given in full) was tested, and the GI50 [1] was > 50 µM (inactive), the GI50 [2] was > 50 µM (inactive) and the GI50 [3] was > 50 µM (inactive). The GI50 [4] was > 50 µM (inactive), the GI50 [5] was > 50 µM (inactive) and the GI50 [7] was > 50 µM (inactive). The GI50 [9] was > 50 µM (inactive) and the GI50 [8] was > 50 µM (inactive).

`Brc1ccc(N2C[N+](c3ccc(Br)cc3)=NC(c3ccccc3)=N2)cc1` was tested, and the GI50 [6] was 20.6 µM (inactive), the GI50 [1] was 11.1 µM (inactive) and the GI50 [2] was 12.6 µM (inactive). For the same compound, the GI50 [3] was 14.3 µM (inactive), the GI50 [4] was 18.2 µM (inactive) and the GI50 [5] was 19.5 µM (inactive). The GI50 [7] was 14.8 µM (inactive) and the GI50 [8] was 31.2 µM (inactive).

`COCC(O)Cn1ccnc1[N+](=O)[O-]` (stereo not given) [MISONIDAZOLE] was tested, and the GI50 [6] was > 100 µM (inactive), the GI50 [3] was > 100 µM (inactive) and the GI50 [4] was > 100 µM (inactive). The GI50 [5] was > 100 µM (inactive) and the GI50 [8] was > 100 µM (inactive).

`CC(/C(=N\Nc1ccccc1)c1ccc(O)cc1)C1C(=O)Oc2ccccc21` (stereo not given) was tested, and the GI50 [1] was > 100 µM (inactive), the GI50 [2] was > 100 µM (inactive) and the GI50 [3] was > 100 µM (inactive). The GI50 [4] was > 100 µM (inactive) and the GI50 [5] was > 100 µM (inactive).

In the case of `COC(CN1C(=O)c2cccc3cccc(c23)C1=O)OC`, the GI50 [6] is reported as 23.1 µM (inactive), the GI50 [1] is reported as 62.7 µM (inactive) and the GI50 [2] is reported as > 100 µM (inactive). For the same compound, the GI50 [3] was > 100 µM (inactive), the GI50 [4] was > 100 µM (inactive) and the GI50 [5] was 78 µM (inactive). For the same compound, the GI50 [7] was > 100 µM (inactive) and the GI50 [8] was > 100 µM (inactive).
